± gives the expanded uncertainty stated by the source.
Test: mn = molality of the nth substance listed, in mol/kg
Conditions: Liquid, Vibrating tube method

[Ca+2].[Cl-].[Cl-] [calcium chloride] + CO
Conditions | mass density [kg/m3]
298.27 K, 184 kPa, m1 = 2.393 | 977.23 ± 0.59
298.27 K, 5004 kPa, m1 = 2.393 | 980.74 ± 0.6
298.27 K, 9983 kPa, m1 = 2.393 | 984.25 ± 0.6
298.27 K, 14989 kPa, m1 = 2.393 | 987.66 ± 0.6
298.27 K, 19998 kPa, m1 = 2.393 | 990.95 ± 0.6
298.27 K, 25001 kPa, m1 = 2.393 | 994.14 ± 0.61
298.27 K, 30011 kPa, m1 = 2.393 | 997.26 ± 0.61
298.27 K, 34980 kPa, m1 = 2.393 | 1000.22 ± 0.61
298.27 K, 39985 kPa, m1 = 2.393 | 1003.15 ± 0.61
298.28 K, 175 kPa, m1 = 0.2853 | 814.28 ± 0.51
298.28 K, 179 kPa, m1 = 0.6588 | 848.89 ± 0.53
298.28 K, 202 kPa, m1 = 0.1082 | 797.82 ± 0.5
298.28 K, 4988 kPa, m1 = 0.6588 | 853.15 ± 0.53
298.28 K, 5000 kPa, m1 = 0.2853 | 818.77 ± 0.52
298.28 K, 5011 kPa, m1 = 0.1082 | 802.48 ± 0.51
298.28 K, 9997 kPa, m1 = 0.6588 | 857.39 ± 0.54
298.28 K, 10009 kPa, m1 = 0.2853 | 823.22 ± 0.53
298.28 K, 10011 kPa, m1 = 0.1082 | 807.08 ± 0.52
298.28 K, 14985 kPa, m1 = 0.2853 | 827.41 ± 0.54
298.28 K, 15002 kPa, m1 = 0.1082 | 811.44 ± 0.53
298.28 K, 15012 kPa, m1 = 0.6588 | 861.47 ± 0.55
298.28 K, 19991 kPa, m1 = 0.1082 | 815.57 ± 0.55
298.28 K, 20010 kPa, m1 = 0.6588 | 865.31 ± 0.56
298.28 K, 20018 kPa, m1 = 0.2853 | 831.46 ± 0.55
298.28 K, 24989 kPa, m1 = 0.2853 | 835.29 ± 0.56
298.28 K, 24991 kPa, m1 = 0.6588 | 868.99 ± 0.57
298.28 K, 24997 kPa, m1 = 0.1082 | 819.63 ± 0.56
298.28 K, 29982 kPa, m1 = 0.2853 | 838.98 ± 0.58
298.28 K, 29989 kPa, m1 = 0.1082 | 823.45 ± 0.58
298.28 K, 29991 kPa, m1 = 0.6588 | 872.56 ± 0.57
298.28 K, 34983 kPa, m1 = 0.6588 | 875.99 ± 0.58
298.28 K, 34994 kPa, m1 = 0.2853 | 842.53 ± 0.59
298.28 K, 35017 kPa, m1 = 0.1082 | 827.11 ± 0.59
298.28 K, 39984 kPa, m1 = 0.6588 | 879.31 ± 0.59
298.28 K, 39998 kPa, m1 = 0.1082 | 830.67 ± 0.61
298.28 K, 40005 kPa, m1 = 0.2853 | 845.94 ± 0.6
323.22 K, 232 kPa, m1 = 0.6588 | 824.35 ± 0.51
323.22 K, 237 kPa, m1 = 2.393 | 952.79 ± 0.58
323.22 K, 245 kPa, m1 = 0.1082 | 773.87 ± 0.49
323.22 K, 4998 kPa, m1 = 0.6588 | 829.19 ± 0.52
323.22 K, 5003 kPa, m1 = 2.393 | 956.69 ± 0.58
323.22 K, 5013 kPa, m1 = 0.1082 | 779.2 ± 0.5
323.22 K, 9984 kPa, m1 = 0.1082 | 784.43 ± 0.51
323.22 K, 9988 kPa, m1 = 2.393 | 960.6 ± 0.59
323.22 K, 10013 kPa, m1 = 0.6588 | 834.04 ± 0.53
323.22 K, 14985 kPa, m1 = 2.393 | 964.38 ± 0.59
323.22 K, 14994 kPa, m1 = 0.1082 | 789.4 ± 0.53
323.22 K, 15000 kPa, m1 = 0.6588 | 838.59 ± 0.54
323.22 K, 19991 kPa, m1 = 0.1082 | 794.09 ± 0.55
323.22 K, 20010 kPa, m1 = 0.6588 | 842.96 ± 0.55
323.22 K, 20014 kPa, m1 = 2.393 | 968.03 ± 0.59
323.22 K, 24988 kPa, m1 = 0.6588 | 847.08 ± 0.56
323.22 K, 24989 kPa, m1 = 0.1082 | 798.56 ± 0.56
323.22 K, 25005 kPa, m1 = 2.393 | 971.52 ± 0.59
323.22 K, 29988 kPa, m1 = 0.1082 | 802.81 ± 0.58
323.22 K, 29988 kPa, m1 = 2.393 | 974.89 ± 0.6
323.22 K, 30009 kPa, m1 = 0.6588 | 851.08 ± 0.58
323.22 K, 34980 kPa, m1 = 2.393 | 978.17 ± 0.6
323.22 K, 34991 kPa, m1 = 0.1082 | 806.89 ± 0.6
323.22 K, 35005 kPa, m1 = 0.6588 | 854.89 ± 0.59
323.22 K, 39995 kPa, m1 = 0.1082 | 810.79 ± 0.62
323.22 K, 39995 kPa, m1 = 0.6588 | 858.56 ± 0.6
323.22 K, 40017 kPa, m1 = 2.393 | 981.39 ± 0.6
323.23 K, 226 kPa, m1 = 0.2853 | 790.12 ± 0.5
323.23 K, 5015 kPa, m1 = 0.2853 | 795.26 ± 0.51
323.23 K, 9993 kPa, m1 = 0.2853 | 800.3 ± 0.52
323.23 K, 14993 kPa, m1 = 0.2853 | 805.07 ± 0.53
323.23 K, 20003 kPa, m1 = 0.2853 | 809.62 ± 0.55
323.23 K, 25013 kPa, m1 = 0.2853 | 813.96 ± 0.56
323.23 K, 30015 kPa, m1 = 0.2853 | 818.08 ± 0.58
323.23 K, 34988 kPa, m1 = 0.2853 | 821.99 ± 0.6
323.23 K, 40005 kPa, m1 = 0.2853 | 825.78 ± 0.61
348.23 K, 303 kPa, m1 = 2.393 | 928.79 ± 0.57
348.23 K, 4983 kPa, m1 = 2.393 | 933.12 ± 0.57
348.23 K, 9990 kPa, m1 = 2.393 | 937.54 ± 0.57
348.23 K, 15005 kPa, m1 = 2.393 | 941.76 ± 0.58
348.23 K, 20000 kPa, m1 = 2.393 | 945.79 ± 0.58
348.23 K, 24993 kPa, m1 = 2.393 | 949.65 ± 0.59
348.23 K, 29995 kPa, m1 = 2.393 | 953.38 ± 0.59
348.23 K, 35000 kPa, m1 = 2.393 | 956.97 ± 0.59
348.23 K, 39984 kPa, m1 = 2.393 | 960.44 ± 0.6
348.24 K, 308 kPa, m1 = 0.1082 | 748.93 ± 0.48
348.24 K, 321 kPa, m1 = 0.6588 | 799.27 ± 0.5
348.24 K, 326 kPa, m1 = 0.2853 | 765.1 ± 0.48
348.24 K, 4986 kPa, m1 = 0.6588 | 804.77 ± 0.51
348.24 K, 5001 kPa, m1 = 0.2853 | 770.94 ± 0.5
348.24 K, 5010 kPa, m1 = 0.1082 | 755.08 ± 0.49
348.24 K, 9985 kPa, m1 = 0.1082 | 761.11 ± 0.51
348.24 K, 9995 kPa, m1 = 0.6588 | 810.3 ± 0.52
348.24 K, 9998 kPa, m1 = 0.2853 | 776.76 ± 0.51

From the NIST ThermoML archive (doi:10.1016/j.jct.2005.05.003)
